In patent US20240358862A1, “Synthesis Method and Application of a Near-infrared Probe GGa-ICG specific binding to PSCA” (Guangzhou Shiyun Biotechnology Co., Ltd, priority 2022, published 2024):

Key:
[1] = Fluorescence stability detection; format: physicochemical; conditions: after excitation at 780 nm
Method: Stability testing was divided into two groups: 1) stability testing under excitation wavelength and 2) stability testing of GGa-ICG under visible light. Excitation wavelength of 780 nm (GGa-ICG, ssDNA-ICG, and ICG) and visible light were used to excite the fluorescence probe GGa-ICG. Fluorescence detection was performed, and the changes in fluorescence intensity were recorded using a fluorescence spectrophotometer.

[2] = test system: prostate cancer lesions (PC-3 xenograft); assay: In vivo imaging in PC-3 mouse xenograft model; parameters: species or system BALB/c nude mice; conditions: intravenous injection, at 2, 4, and 8 hours
Method: Male BALB/c nude mice (BALB/c-nude) were purchased from Beijing SLAC Laboratory Animal Co., Ltd. Five-week-old nude mice were subcutaneously injected with 5×10^6 PC-3 cells on the back. The tumor was allowed to grow for 15 to 20 days until it reached a diameter of 0.5-1.5 cm. The BALB/c nude mice bearing tumors were anesthetized with sedatives and anesthetics. Once the mice were immobilized, a designated dose (0.1 mg, 0.5 mg, 1 mg, 2 mg per injection) of GGa-ICG or ssDNA-ICG was injected through the tail vein. At certain time points, fluorescent images of live mice were collected using the IVIS Lumina II in vivo imaging system. For ex vivo fluorescent experiments, tumor-bearing mice that were intravenously injected with GGa-ICG or ssDNA-ICG were euthanized by cervical dislocation 1 hour after injection under anesthesia. After dissection, organs including brain, liver, kidney, spleen, lung, heart, and tumor tissue were imaged using the IVIS Lumina II in vivo imaging system as described above.

- time after which fluorescence was extinguished [1]: 1 h
Compound: CC1(C)C(/C=C/C=C/C=C/C=C2\N(CCCCS(=O)(=O)O)c3ccc4ccccc4c3C2(C)C)=[N+](CCCCS(=O)(=O)[O-])c2ccc3ccccc3c21 [ICG, indocyanine green, reference compound]
- binding to prostate cancer lesions in vivo [2]: specifically bound
